Laboratory results reported in ChEMBL document CHEMBL1152209, “Synthesis and biological activity of previtamin D(3) analogues with A-ring modifications” (2008).

Assays:
[1] = system: MCF7; experiment: Inhibition of human MCF7 cell proliferation assessed as [3H]thymidine incorporation at EC50 after 72 hrs relative to 1-alpha,25-(OH)2D3; format: functional
[2] = biological target: T1, Vitamin D3 receptor (Sus scrofa) (UniProt A3RGC1); experiment: Displacement of [3H]1-alpha,25-(OH)2D3 from pig VDR at EC50 relative to 1-alpha,25-(OH)2D3
T1 sequence (whole entry): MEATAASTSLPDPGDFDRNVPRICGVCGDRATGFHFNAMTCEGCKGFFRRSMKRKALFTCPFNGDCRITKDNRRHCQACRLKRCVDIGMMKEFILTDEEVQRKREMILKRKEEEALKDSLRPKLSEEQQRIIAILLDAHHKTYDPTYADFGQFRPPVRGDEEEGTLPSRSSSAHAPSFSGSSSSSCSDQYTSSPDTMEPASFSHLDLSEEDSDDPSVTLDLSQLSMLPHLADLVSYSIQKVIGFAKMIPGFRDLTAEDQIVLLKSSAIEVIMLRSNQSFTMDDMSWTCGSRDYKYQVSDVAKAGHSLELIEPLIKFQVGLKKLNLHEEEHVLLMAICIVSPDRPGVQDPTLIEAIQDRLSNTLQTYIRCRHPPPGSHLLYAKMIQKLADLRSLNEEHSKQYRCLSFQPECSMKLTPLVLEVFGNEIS

[3] = biological target: T2, Vitamin D-binding protein (Homo sapiens) (UniProt P02774); experiment: Binding affinity to human DBP at EC50 in 4 degC relative to 1-alpha,25-(OH)2D3
T2 sequence (whole entry): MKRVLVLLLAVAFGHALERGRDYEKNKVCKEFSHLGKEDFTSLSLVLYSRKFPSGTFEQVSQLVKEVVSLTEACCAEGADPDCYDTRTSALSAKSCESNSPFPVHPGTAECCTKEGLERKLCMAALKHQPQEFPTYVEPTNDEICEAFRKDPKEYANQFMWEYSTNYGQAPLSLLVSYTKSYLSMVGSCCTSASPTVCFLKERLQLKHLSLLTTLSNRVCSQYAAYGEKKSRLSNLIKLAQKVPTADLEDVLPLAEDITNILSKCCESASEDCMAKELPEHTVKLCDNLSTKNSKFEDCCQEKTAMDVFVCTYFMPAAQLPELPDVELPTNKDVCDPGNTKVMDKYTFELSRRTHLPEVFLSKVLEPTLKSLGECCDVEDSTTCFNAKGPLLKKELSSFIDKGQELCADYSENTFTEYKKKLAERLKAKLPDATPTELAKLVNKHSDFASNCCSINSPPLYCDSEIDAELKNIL

Activity [2] [%] | Activity [3] [%] | Compound | inhibition (INH) [1] [%]
0 | 0.9 | C[C@H](CCCC(C)(C)O)[C@H]1CC[C@H]2C(/C=C\C3=C[C@@H](O)[C@@H]4O[C@@H]4C3)=CCC[C@]12C | 0
0 | 0.5 | C[C@H](CCCC(C)(C)O)[C@H]1CC[C@H]2C(/C=C\C3=C[C@@H](O)[C@H](OCCCO)[C@H](O)C3)=CCC[C@]12C | 0
